The values below come from BindingDB's records for doi:10.1080/14756360500112326 (National Institute of Pharmaceutical Education and Research, 2005).

Xanthine dehydrogenase/oxidase, sequence (P47989 whole entry): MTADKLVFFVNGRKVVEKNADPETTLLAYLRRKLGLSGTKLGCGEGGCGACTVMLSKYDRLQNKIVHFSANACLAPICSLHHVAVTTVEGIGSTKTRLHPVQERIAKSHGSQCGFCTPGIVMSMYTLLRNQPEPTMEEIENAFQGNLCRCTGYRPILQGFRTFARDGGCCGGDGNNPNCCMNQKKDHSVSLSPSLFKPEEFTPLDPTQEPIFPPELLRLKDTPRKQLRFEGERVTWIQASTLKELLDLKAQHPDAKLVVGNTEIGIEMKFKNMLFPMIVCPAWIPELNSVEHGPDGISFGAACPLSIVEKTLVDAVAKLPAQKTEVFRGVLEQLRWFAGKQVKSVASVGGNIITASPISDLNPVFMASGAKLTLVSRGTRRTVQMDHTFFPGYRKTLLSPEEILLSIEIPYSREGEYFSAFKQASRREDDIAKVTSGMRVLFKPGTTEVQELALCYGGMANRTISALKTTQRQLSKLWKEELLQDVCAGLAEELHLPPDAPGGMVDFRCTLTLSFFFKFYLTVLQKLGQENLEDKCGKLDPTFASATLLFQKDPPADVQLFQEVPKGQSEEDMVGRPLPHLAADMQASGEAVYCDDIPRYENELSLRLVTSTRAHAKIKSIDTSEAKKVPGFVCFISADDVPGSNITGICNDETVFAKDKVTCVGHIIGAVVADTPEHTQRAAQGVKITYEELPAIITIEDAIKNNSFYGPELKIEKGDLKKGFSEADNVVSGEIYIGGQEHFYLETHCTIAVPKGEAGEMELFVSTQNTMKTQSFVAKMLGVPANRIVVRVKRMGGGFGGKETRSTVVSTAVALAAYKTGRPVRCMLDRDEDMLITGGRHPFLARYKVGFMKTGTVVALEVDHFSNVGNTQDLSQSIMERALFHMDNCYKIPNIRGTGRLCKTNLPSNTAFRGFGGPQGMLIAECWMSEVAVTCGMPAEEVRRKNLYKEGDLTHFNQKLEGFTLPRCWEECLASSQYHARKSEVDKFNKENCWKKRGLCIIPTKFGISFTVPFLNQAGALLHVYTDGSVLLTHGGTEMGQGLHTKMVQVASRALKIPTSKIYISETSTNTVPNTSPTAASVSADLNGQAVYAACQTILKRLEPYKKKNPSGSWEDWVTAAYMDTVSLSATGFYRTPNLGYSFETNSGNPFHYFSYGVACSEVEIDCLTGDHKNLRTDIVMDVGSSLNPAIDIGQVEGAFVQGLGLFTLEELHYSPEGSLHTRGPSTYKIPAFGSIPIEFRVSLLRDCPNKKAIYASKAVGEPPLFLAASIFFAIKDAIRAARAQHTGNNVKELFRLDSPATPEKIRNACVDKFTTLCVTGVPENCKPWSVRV

This experiment deals with Xanthine dehydrogenase/oxidase (Homo sapiens, UniProt P47989). In words: Xanthine Oxidase Inhibition Assay. The protocol:
Inhibition assay of the xanthine oxidase reaction by various purine based inhibitors was measured in terms of the decrease in uric acid formation at […].
Turning to `Nc1ncnc2nc[nH]c12`, half-maximal inhibition (IC50) was put at 75.6 µM.

For the molecule `O=C(Nc1ncnc2nc[nH]c12)c1ccccc1` [6-(N-benzoylamino)purine, 2], it took 0.45 µM to reach half-maximal inhibition (IC50).

Consider `O=c1[nH]c(=O)c2[nH]c(Br)nc2[nH]1` [8-Bromoxanthine, 3], for which the IC50 – broadly, the concentration that inhibits the measured activity by half – was found to be 400 µM.
